Measurements: patent US11179501B2, “Bone morphogenetic protein pathway activation, compositions for ossification, and methods related thereto” (Emory University, priority 2011, dated 2021)

Columns and labels:
C2C12 cells [1] = test: BMP-Noggin competitive alkaline phosphatase (ALP) assay; type: cell-based, Mouse; settings: for Fold increase in Noggin-Inhibition ALP Assay over BMP alone control: BMP-2 90-100 ng/ml plus noggin 100-120 ng/ml, 72 hours; for cell lifting from culture plates: BMP-Noggin competitive ALP assay, low cell number and low yield of protein
Experimental: (§1) Their activity was evaluated by determining the potentiation of alkaline phosphatase activity in sub-optimal doses of BMP in the presence or absence of exogenously added noggin.
Mouse C2C12 cells and Dulbecco's modified Eagle's medium (DMEM) were purchased from ATCC (Manassas, Va.). The non-heat inactivated fetal bovine serum (FBS) was purchased from HyClone Laboratories, Inc. (Logan, Utah). The C2C12 cells at passages 5 to 10 were subcultured in T-75 cm^2 flasks in DMEM supplemented with 10% FBS at 37° C. in 5% CO2 with humidification. When the flasks reached 80% confluence, the cells were trypsinized and seeded in triplicate.
The C2C12 cells were plated at 200,000 cells/well in 6-well plates and grown overnight in DMEM containing 10% FBS. On day 2, the culture medium was replaced with DMEM containing 2% FBS and the cells were treated with 90-100 ng/ml of BMP-2 (as noted in each experiment), various concentrations of compound, and 100-120 ng/ml of noggin (as noted in each experiment) for 72 hours. The cells were washed with phosphate-buffered saline (PBS) and lysed by addition of lysis buffer (10 mM Tris-HCl pH 8.0, 1 mM MgCl2 and 1.0% Triton X-100). The cell lysates were centrifuged for 5 minutes at 13,000×g. The supernatant was removed and the aliquots were assayed for ALP activity and protein amount. The ALP activity was measured in triplicate using an ALP assay kit (Sigma-Aldrich, St. Louis, Mo.) in microtiter plates. The protein amount was determined with Bio-Rad protein assay reagent (Bio-Rad, Hercules, Calif.) using bovine serum albumin (BSA) as a standard. The ALP activity (nmoles of p-nitrophenol per ml) was normalized to the protein amount (nmoles of p-nitrophenol per μg).

C2C12 cells [2] = test: Alkaline phosphatase (ALP) assay: potentiation of BMP-2-induced ALP activity; settings: for Fold increase in BMP-Potentiated ALP activity over BMP control: C2C12 cells, 50 ng/ml BMP-2, 72 hours
Experimental: as §1
The BMP-potentiating activities of compounds may be evaluated by monitoring several markers of the osteoblastic phenotype corresponding to various time points during phenotype differentiation of C2C12 cells towards terminally differentiated osteoblasts.
The C2C12 cells at passages 5 to 10 were subcultured in T-75 cm^2 flasks in DMEM supplemented with 10% FBS at 37° C. in 5% CO2 with humidification. When the flasks reached 80% confluence, the cells were trypsinized and seeded in triplicate.
The C2C12 cells were plated at 200,000 cells/well in 6-well plates and grown overnight in DMEM containing 10% FBS. On day 2, the culture medium was replaced with DMEM containing 2% FBS and the cells were treated with various concentrations of compound for 24 hours. On day 3, the culture medium was replaced with DMEM containing 2% FBS and the cells were treated with 50 ng/ml of BMP-2 and various concentrations of compound for 72 hours. The cells were washed with phosphate-buffered saline (PBS) and lysed by addition of lysis buffer (10 mM Tris-HCl pH 8.0, 1 mM MgCl2 and 1.0% Triton X-100). The cell lysates were centrifuged for 5 minutes at 13,000×g. The supernatant was removed and the aliquots were assayed for ALP activity and protein amount. The ALP activity was measured in triplicate using an ALP assay kit (Sigma-Aldrich, St. Louis, Mo.) in microtiter plates. The protein amount was determined with Bio-Rad protein assay reagent (Bio-Rad, Hercules, Calif.) using bovine serum albumin (BSA) as a standard. The ALP activity (nmoles of p-nitrophenol per ml) was normalized to the protein amount (nmoles of p-nitrophenol per μg).

Sprague Dawley rats = test: Collagen disc implantation with macrolides in rat ectopic model; type: in vivo; parameters: Ave. (Xray score): scale not given here; settings: for Ave. (Xray score) / Results (bone, animals with bone of 4): 100 ul, collagen, no BMP-2, 4 weeks
Source text: Sprague Dawley rats about 5-6 weeks of age were chest implanted with a collagen disc (diameter of 1.0 cm and height of 2.0 mm; total volume of 150 cubic millimeters) and doses of macrolides in the absence of BMP-2. After 4 weeks the rats were sacrificed and evaluated for bone growth. […] In certain embodiments, the disclosure contemplates local bone formation for fracture repair, segmental bone defects, spine fusion, bone grafting, and regional bone enhancement for osteopenic bones before they fracture (e.g. hip, vertebral body, etc) by deliver locally to induce local bone formation.

Row | Compound | Fold increase in Noggin-Inhibition ALP Assay over BMP alone control (C2C12 cells [1]) | Fold increase in BMP-Potentiated ALP activity over BMP control (C2C12 cells [2]) | cell lifting from culture plates (C2C12 cells [1]) | also measured
1 | COc1cc(C)c(/C=C/C(C)=C/C=C/C(C)=C/C(=O)O)c(C)c1C [Acitretin, acitretin] | 3 | 33 | – | –
2 | COc1cc(CNC(=O)CCCCC=CC(C)C)ccc1O [Capsaicin, N-(4-hydroxy-3-methoxybenzyl)-8-methylnon-6-enamide] | – | – | caused cell lifting from culture plates | –
3 | O=C(O)CCCc1ccc(N(CCCl)CCCl)cc1 [Chlorambucil, chlorambucil] | 4 | 3 | – | –
4 | Clc1ccccc1C(c1ccccc1)(c1ccccc1)n1ccnc1 [Clotrimazole, 1-[(2-chlorophenyl)diphenylmethyl]-1H-imidazole] | 4 | 7 | – | BMP-induced ALP activity (C2C12 cells [2]; nanomolar concentrations, FIG. 5): dose dependent increase
5 | CCC(=O)O[C@]1(C(=O)SCF)[C@H](C)C[C@H]2[C@@H]3C[C@H](F)C4=CC(=O)C=C[C@]4(C)[C@@]3(F)[C@@H](O)C[C@@]21C [Fluticasone Propionate, 6,9-difluoro-11-hydroxy-16-methyl-3-oxo-17-(1-oxopropoxy)-androsta-1,4-diene-17-carbothioic acid S-(fluoromethyl) ester] | 3 | 6 | – | –
6 | C=CCc1ccc(O)c(-c2ccc(O)c(CC=C)c2)c1 [Honokiol, 3′,5-di-2-propen-1-yl-[1,1′-biphenyl]-2,4′-diol] | 16 | 5 | – | –
7 | CC1=C(/C=C/C(C)=C/C=C/C(C)=C\C(=O)O)C(C)(C)CCC1 [Isotretinoin, isotretinoin] | 3 | 30 | – | –
8 | CC(=O)N1CCN(c2ccc(OC[C@H]3CO[C@](Cn4ccnc4)(c4ccc(Cl)cc4Cl)O3)cc2)CC1 [Ketoconazole, 1-(4-(4-(((2R,4S)-2-((1H-imidazol-1-yl)methyl)-2-(2,4-dichlorophenyl)-1,3-dioxolan-4-yl)methoxy)phenyl)piperazin-1-yl)ethanone] | – | – | caused cell lifting from culture plates | –
9 | CC(=O)NC[C@H]1CN(c2ccc(N3CCOCC3)c(F)c2)C(=O)O1 [Linezolid, N-[[(5S)-3-[3-fluoro-4-(4-morpholinyl)phenyl]-2-oxo-5-oxazolidinyl]methyl]-acetamide] | 3 | 5 | – | –
10 | CC[C@H](C)C(=O)O[C@H]1C[C@@H](C)C=C2C=C[C@H](C)[C@H](CC[C@@H]3C[C@@H](O)CC(=O)O3)[C@H]21 [Lovastatin, lovastatin] | – | – | caused cell lifting from culture plates | –
11 | CC1=C(/C=C/C(C)=C/C=C/C(C)=C/C(=O)O)C(C)(C)CCC1 [Retinoic acid, (2E,4E,6E,8E)-3,7-dimethyl-9-(2,6,6-trimethylcyclohexen-1-yl)nona-2,4,6,8-tetraenoic acid] | 2 | 11 | – | –
12 | CC(=O)S[C@@H]1CC2=CC(=O)CC[C@]2(C)[C@H]2CC[C@@]3(C)[C@@H](CC[C@@]34CCC(=O)O4)[C@H]12 [Spironolactone, spironolactone] | 4 | 3 | – | –
13 | C=CCC1C=C(C)CC(C)CC(OC)C2OC(O)(C(=O)C(=O)N3CCCCC3C(=O)OC(/C(C)=C/C3CCC(O)C(OC)C3)C(C)C(O)CC1=O)C(C)CC2OC (stereo not drawn) [Tacrolimus, 5,6,8,11,12,13,14,15, 16,17,18,19,24,25,26,26a-hexadecahydro-5,19-dihydroxy-3-[(1E)-2-[4-hydroxy-3-methoxycyclohexyl]-1-methylethenyl]-14,16-dimethoxy-4,10,12,18-tetramethyl-8-(2-propen-1-yl)-15,19-epoxy-3H-pyrido[2,1-c][1,4]oxaazacyclotricosine-1,7,20,21(4H,23H)-tetrone] | 5 | 7 | – | Ave. (Xray score) (Sprague Dawley rats; dose 10 mM): 0; Results (bone, animals with bone of 4) (Sprague Dawley rats; dose 10 mM): No bone (0 of 4); Ave. (Xray score) (Sprague Dawley rats; dose 15 mM): 0.5; Results (bone, animals with bone of 4) (Sprague Dawley rats; dose 15 mM): Bone (1 of 4); Ave. (Xray score) (Sprague Dawley rats; dose 20 mM): 3.25; Results (bone, animals with bone of 4) (Sprague Dawley rats; dose 20 mM): Bone (3 of 4); Ave. (Xray score) (Sprague Dawley rats; dose 25 mM): 4.25; Results (bone, animals with bone of 4) (Sprague Dawley rats; dose 25 mM): Bone (4 of 4); Ave. (Xray score) (Sprague Dawley rats; dose 30 mM): 2.5; Results (bone, animals with bone of 4) (Sprague Dawley rats; dose 30 mM): Bone (3 of 4); Ave. (Xray score) (Sprague Dawley rats; dose 35 mM): 4; Results (bone, animals with bone of 4) (Sprague Dawley rats; dose 35 mM): Bone (4 of 4); De novo bone formation (Sprague Dawley rats; local, collagen disc, chest implant, absence of BMP-2, 4 weeks): De novo bone formation is demonstrated locally
14 | CCCc1nc2c(C)cc(-c3nc4ccccc4n3C)cc2n1Cc1ccc(-c2ccccc2C(=O)O)cc1 [Telmisartan, 4′-((1,7′-dimethyl-2′-propyl-1H,3′H-[2,5′-bibenzo[d]imidazol]-3′-yl)methyl)[1,1′-biphenyl]-2-carboxylic acid] | 3 | 3 | – | –
15 | Nc1ccn([C@@H]2O[C@H](CO)[C@@H](O)[C@@H]2O)c(=O)n1 [cytarabine] | – | – | caused cell lifting from culture plates | –
16 | CCOC(=O)C1=C(C)NC(C)=C(C(=O)OC)C1c1cccc(Cl)c1Cl (stereo not drawn) [felodipine] | – | – | caused cell lifting from culture plates | –
17 | Clc1ccc(CON=C(Cn2ccnc2)c2ccc(Cl)cc2Cl)c(Cl)c1 [oxiconazole nitrate, 1-(2,4-dichlorophenyl)-2-(1H-imidazol-1-yl)ethanone O-(2,4-dichlorobenzyl) oxime] | – | – | caused cell lifting from culture plates | –
